15 molecules from ChEMBL document CHEMBL4196076, “An access to a library of novel triterpene derivatives with a promising pharmacological potential by Ugi and Passerini multicomponent reactions” (Eur J Med Chem, 2018) can be followed below.

Bounds are passed on as bounds.

The subject of one data set is A549. Briefly: Cytotoxicity against human A549 cells after 96 hrs by sulforhodamine-B assay. Type of data set: functional, cell-based. Conditions: A549, 96 h. A general note: Sulforhodamine B stains cellular protein and so reports cell mass.
Another data set has as its system FaDu. In words: Cytotoxicity against human FADU cells after 96 hrs by sulforhodamine-B assay. Type of data set: functional, cell-based.
For the next data set, the system named is NIH3T3. In words: Cytotoxicity against mouse NIH/3T3 cells after 96 hrs by sulforhodamine-B assay. Type of data set: cell-based. Particulars: NIH3T3, 96 h.
The next data set has as its system HT-29. Briefly: Cytotoxicity against human HT-29 cells after 96 hrs by sulforhodamine-B assay. Particulars: HT-29, 96 h. Type of data set: functional, cell-based.
Data set [1] can be described thus: Selectivity index, ratio of EC50 for mouse NIH/3T3 cells to EC50 for human A2780 cells. Type of data set: toxicity. Particulars: NIH/3T3 cells and A2780 cells, read-out: Ratio EC50.
For another data set, the system named is MCF7. In words: Cytotoxicity against human MCF7 cells after 96 hrs by sulforhodamine-B assay. Type of data set: functional, cell-based. Conditions: MCF7, 96 h.
For a further data set, the system named is 518A2. Briefly: Cytotoxicity against human 518A2 cells after 96 hrs by sulforhodamine-B assay. Type of data set: functional, cell-based. Particulars: 518A2, 96 h.
The next data set relates to A2780. In words: Cytotoxicity against human A2780 cells after 96 hrs by sulforhodamine-B assay. Type of data set: functional, cell-based. Particulars: A2780, 96 h.

Consider `C=CCN(CC(=O)NCC(=O)OC)C(=O)[C@]12CCC(C)(C)C[C@H]1C1=CC[C@@H]3[C@@]4(C)CC[C@H](OC(C)=O)C(C)(C)[C@@H]4CC[C@@]3(C)[C@]1(C)CC2`, for which the 50% effective concentration (EC50) with A549 was found to be 6.3 µM; in the data set on FaDu it was 12.2 µM; in the data set with NIH3T3 it was 7.3 µM; with HT-29 it was 11.1 µM; in the data set with MCF7, 4.6 µM; with 518A2, 7.7 µM. In the data set on A2780, this molecule had a half-maximal effective concentration (EC50) of 3.5 µM. Also, the selectivity ratio in data set [1] came out at 2.1.
For `C=CCN(CC(=O)NCc1ccccc1)C(=O)[C@]12CCC(C)(C)C[C@H]1C1=CC[C@@H]3[C@@]4(C)CC[C@H](O)C(C)(C)[C@@H]4CC[C@@]3(C)[C@]1(C)CC2`, the EC50 with A549, in the data set with FaDu, with NIH3T3, in the data set with HT-29, in the data set on MCF7 and in the data set with 518A2 was more than 30 µM each time. The EC50 in the data set with A2780 was found to be 12.9 µM.
As for `CC(=O)O[C@H]1CC[C@]2(C)[C@H]3CC=C4[C@@H]5CC(C)(C)CC[C@]5(C(=O)N(CC(=O)NC(C)C)Cc5ccoc5)CC[C@@]4(C)[C@]3(C)CC[C@H]2C1(C)C`, the EC50 turned out to be 7.5 µM with A549; 12.5 µM in the data set on FaDu; 10.1 µM with NIH3T3; 9.6 µM in the data set with HT-29; 16.7 µM with MCF7; 6.5 µM in the data set on 518A2. Besides, the 50% effective concentration (EC50) in the data set with A2780 was 3.6 µM.
Take `CC(=O)O[C@H]1CC[C@]2(C)[C@H]3CC=C4[C@@H]5CC(C)(C)CC[C@]5(C(=O)N(CC(=O)NC(C)(C)C)Cc5cccc(F)c5)CC[C@@]4(C)[C@]3(C)CC[C@H]2C1(C)C`: the EC50 in the data set on A549, in the data set with FaDu, with NIH3T3, with HT-29, with MCF7 and in the data set on 518A2 was more than 30 µM each time. The same molecule displayed an EC50 in the data set on A2780 of 10.4 µM.
On to `CC1(C)CC[C@]2(C(=O)O)CC[C@]3(C)C(=CC[C@@H]4[C@@]5(C)CC[C@H](O)C(C)(C)[C@@H]5CC[C@]43C)[C@@H]2C1` [OLEANOLIC_ACID], for which the half-maximal effective concentration (EC50) came out at 64.1 µM in the data set with A549; 66.7 µM in the data set on FaDu; 57.9 µM in the data set with NIH3T3; 44.9 µM with HT-29; 49.1 µM in the data set on MCF7; 61.3 µM with 518A2. The molecule further displayed a concentration giving a half-maximal response (EC50) in the data set with A2780 of 58.2 µM.
Regarding `CC(=O)O[C@H]1CC[C@]2(C)[C@H]3CC=C4[C@@H]5CC(C)(C)CC[C@]5(C(=O)N(CC(=O)NC(C)(C)C)Cc5ccoc5)CC[C@@]4(C)[C@]3(C)CC[C@H]2C1(C)C`, the EC50 was 24.2 µM in the data set with A549; 29.1 µM with FaDu; more than 30 µM with NIH3T3; more than 30 µM with HT-29; 19.8 µM in the data set on MCF7; 24.7 µM in the data set with 518A2. The same molecule yielded a half-maximal effective concentration (EC50) in the data set on A2780 of 7.1 µM.
As to `CCCCNC(=O)CN(Cc1ccoc1)C(=O)[C@]12CCC(C)(C)C[C@H]1C1=CC[C@@H]3[C@@]4(C)CC[C@H](OC(C)=O)C(C)(C)[C@@H]4CC[C@@]3(C)[C@]1(C)CC2`, the EC50 with A549 is 16.2 µM; in the data set on FaDu, 17.9 µM; with NIH3T3, more than 30 µM; in the data set on HT-29, more than 30 µM; with MCF7, 13.9 µM; in the data set with 518A2, 11.3 µM. In the data set with A2780, this molecule came in with an EC50 of 5.6 µM.
Regarding `CC(=O)O[C@@H]1C[C@]2(C)[C@H]3CC=C4[C@@H]5CC(C)(C)CC[C@]5(C(=O)N(CC(=O)NCc5ccccc5)Cc5ccoc5)CC[C@@]4(C)[C@]3(C)CC[C@H]2C(C)(C)[C@H]1OC(C)=O`, the EC50 in the data set with A549 amounted to 5.4 µM; in the data set with FaDu it was 14.1 µM; in the data set on NIH3T3, 6.5 µM; in the data set on HT-29 it was 9.9 µM; in the data set with MCF7, 3.4 µM; with 518A2, 13.1 µM. The molecule also returned an EC50 in the data set on A2780 of 2.1 µM.
As for `CCCCNC(=O)CN(Cc1ccccc1)C(=O)[C@]12CCC(C)(C)C[C@H]1C1=CC[C@@H]3[C@@]4(C)CC[C@H](OC(C)=O)C(C)(C)[C@@H]4CC[C@@]3(C)[C@]1(C)CC2`, the EC50 in the data set with A549 was more than 30 µM; with FaDu it was 22.7 µM; in the data set on NIH3T3 it was more than 30 µM; in the data set on HT-29, more than 30 µM; in the data set with MCF7, 22.1 µM; in the data set with 518A2, more than 30 µM. In the data set on A2780, this molecule gave an EC50 of 3 µM.
In the case of `COC(=O)CNC(=O)CN(Cc1ccoc1)C(=O)[C@]12CCC(C)(C)C[C@H]1C1=CC[C@@H]3[C@@]4(C)CC[C@H](OC(C)=O)C(C)(C)[C@@H]4CC[C@@]3(C)[C@]1(C)CC2`, the EC50 in the data set on A549 amounted to 6.5 µM; in the data set with FaDu it was 5.9 µM; in the data set on NIH3T3, 8.9 µM; in the data set with HT-29, 14.3 µM; with MCF7 it was 7 µM; in the data set with 518A2, 6.5 µM. The molecule further came in with an EC50 in the data set on A2780 of 3.5 µM. Also, in data set [1], the selectivity ratio came to 2.5.
For the molecule `CC(=O)O[C@@H]1C[C@]2(C)[C@H]3CC=C4[C@@H]5CC(C)(C)CC[C@]5(C(=O)OCC(=O)NCc5ccccc5)CC[C@@]4(C)[C@]3(C)CC[C@H]2C(C)(C)[C@H]1OC(C)=O`, the concentration giving a half-maximal response (EC50) with A549 came out at 3.2 µM; in the data set with FaDu it was 7.3 µM; with NIH3T3, 2 µM; with HT-29 it was 4.9 µM; in the data set with MCF7 it was 3.6 µM; with 518A2, 4.3 µM. A half-maximal effect in the data set with A2780 (EC50) was put at 1 µM.
Regarding `C=CCN(CC(=O)NC(C)(C)C)C(=O)[C@]12CCC(C)(C)C[C@H]1C1=CC[C@@H]3[C@@]4(C)CC[C@H](OC(C)=O)C(C)(C)[C@@H]4CC[C@@]3(C)[C@]1(C)CC2`, the EC50 was 24.2 µM in the data set on A549; more than 30 µM with FaDu; more than 30 µM in the data set with NIH3T3; more than 30 µM in the data set with HT-29; 12.1 µM in the data set with MCF7; 22.5 µM in the data set on 518A2. Besides, the concentration giving a half-maximal response (EC50) in the data set with A2780 worked out at 12.5 µM.
For the molecule `CC(=O)O[C@H]1CC[C@]2(C)[C@H]3CC=C4[C@@H]5CC(C)(C)CC[C@]5(C(=O)N(CC(=O)NC(C)(C)C)Cc5ccccc5)CC[C@@]4(C)[C@]3(C)CC[C@H]2C1(C)C`, the EC50 in the data set on A549 was more than 30 µM; in the data set with FaDu it was 16 µM; in the data set on NIH3T3, more than 30 µM; with HT-29, more than 30 µM; in the data set with MCF7 it was 14.1 µM; in the data set on 518A2, 15 µM. The molecule further registered an EC50 in the data set on A2780 of 2.7 µM. Also, in data set [1], the selectivity ratio is more than 11.
For the molecule `CC(=O)O[C@@H]1C[C@]2(C)[C@H]3CC=C4[C@@H]5CC(C)(C)CC[C@]5(C(=O)N(CC(=O)NC(C)(C)C)Cc5ccoc5)CC[C@@]4(C)[C@]3(C)CC[C@H]2C(C)(C)[C@H]1OC(C)=O`, the EC50 with A549 was determined as 3.5 µM; in the data set with FaDu, 3 µM; in the data set with NIH3T3, 7.3 µM; in the data set on HT-29, 3.4 µM; in the data set on MCF7, 4 µM; in the data set with 518A2 it was 3.9 µM. Further, the EC50 in the data set with A2780 turned out to be 0.4 µM.
`CC1(C)CC[C@]2(C(=O)N(CC(=O)NC(C)(C)C)Cc3ccoc3)CC[C@]3(C)C(=CC[C@@H]4[C@@]5(C)CC[C@H](O)C(C)(C)[C@@H]5CC[C@]43C)[C@@H]2C1`: the EC50 amounted to 18.9 µM in the data set on A549; 17.4 µM with FaDu; 11.8 µM with NIH3T3; 6.7 µM with HT-29; 4.1 µM in the data set on MCF7; 13.9 µM in the data set on 518A2. The molecule further came in with an EC50 in the data set with A2780 of 10 µM.

As usually defined, the EC50 is the concentration needed to bring the measured effect to its halfway point.
